Source: article PMC10599993, “The PTPN2/PTPN1 inhibitor ABBV-CLS-484 unleashes potent anti-tumour immunity” (Nature, 2023)

How the values were obtained:
Assay in all cases: biochemical
Parameters in all cases: Safety pharmacology off-target panel at Eurofins, radioligand binding with agonist or antagonist radioligand (Supplementary Table 2)
5-HT transporter = target: T1, 5-HT transporter (Homo sapiens, UniProt P31645); settings: antagonist radioligand
T1 construct: gene SLC6A4
Procedure: (§1) Wide-range phosphatase, kinase and preclinical safety pharmacology off-target activity screens were conducted at Eurofins (Extended Data Table 5 and Supplementary Tables 1 and 2). A small phosphatase panel was developed at AbbVie to assess IC50 values on select phosphatases. The following enzymes used in the phosphatase selectivity panel were purchased from Eurofins: PTPN1 (PTP1B; 14–621), PTPN2 (TC-PTP; 14–646), PTPN9 (14–592), SHP1 (14–591) and SHP2 (14–622). The catalytic activity of the phosphatase was monitored using the small-molecule substrate DiFMUP (ThermoFisher) in a fluorescence assay format. In brief, the phosphatase reactions were performed at room temperature in the following assay buffer: 50 mM HEPES, pH 7.2, 100 mM NaCl, 1 mM EDTA, 0.005% Tween-20 and 5 mM TCEP. Each phosphatase was incubated with increasing concentrations of AC484 for 5 min, after which the substrate DiFMUP was added and incubated at 25 °C for 30 min. The final concentration of the enzyme and substrate was maintained at 0.5 nM and 5 μM, respectively, in all the assays. The reaction was then quenched by the addition of a 100 μM solution of bpV(Phen) (Enzo Life Sciences). The fluorescence signal was monitored using an Envision microplate reader (Perkin-Elmer) using excitation and emission wavelengths of 340 nm and 450 nm, respectively. The dose–response curves for the inhibitors were analysed using normalized IC50 regression curve fitting with control-based normalization. Supplementary file 41586_2023_6575_MOESM4_ESM.xlsx: Supplementary Table 2 AC484 receptor selectivity screen.

5-HT1A = target: T2, 5-HT1A (Homo sapiens, UniProt P08908); settings: agonist radioligand
T2 construct: gene HTR1A
T2 sequence (P08908 whole entry): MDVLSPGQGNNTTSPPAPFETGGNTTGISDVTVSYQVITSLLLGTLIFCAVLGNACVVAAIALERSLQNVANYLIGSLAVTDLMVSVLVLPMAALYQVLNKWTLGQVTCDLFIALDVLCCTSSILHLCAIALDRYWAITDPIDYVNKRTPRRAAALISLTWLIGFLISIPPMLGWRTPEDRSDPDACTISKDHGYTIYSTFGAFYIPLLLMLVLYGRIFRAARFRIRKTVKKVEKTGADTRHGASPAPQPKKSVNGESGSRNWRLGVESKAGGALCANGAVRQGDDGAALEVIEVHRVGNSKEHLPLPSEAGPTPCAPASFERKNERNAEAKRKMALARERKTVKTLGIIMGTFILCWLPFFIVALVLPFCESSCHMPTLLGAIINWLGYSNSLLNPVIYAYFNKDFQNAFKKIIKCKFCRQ
Procedure: as §1

5-HT2C = target: T3, 5-HT2C (Homo sapiens, UniProt P28335); settings: antagonist radioligand
T3 construct: gene HTR2C
Procedure: as §1

5-HT3 = target: T4, 5-HT3 (Homo sapiens, UniProt P46098); settings: antagonist radioligand
T4 construct: gene HTR3A
T4 sequence (P46098 whole entry): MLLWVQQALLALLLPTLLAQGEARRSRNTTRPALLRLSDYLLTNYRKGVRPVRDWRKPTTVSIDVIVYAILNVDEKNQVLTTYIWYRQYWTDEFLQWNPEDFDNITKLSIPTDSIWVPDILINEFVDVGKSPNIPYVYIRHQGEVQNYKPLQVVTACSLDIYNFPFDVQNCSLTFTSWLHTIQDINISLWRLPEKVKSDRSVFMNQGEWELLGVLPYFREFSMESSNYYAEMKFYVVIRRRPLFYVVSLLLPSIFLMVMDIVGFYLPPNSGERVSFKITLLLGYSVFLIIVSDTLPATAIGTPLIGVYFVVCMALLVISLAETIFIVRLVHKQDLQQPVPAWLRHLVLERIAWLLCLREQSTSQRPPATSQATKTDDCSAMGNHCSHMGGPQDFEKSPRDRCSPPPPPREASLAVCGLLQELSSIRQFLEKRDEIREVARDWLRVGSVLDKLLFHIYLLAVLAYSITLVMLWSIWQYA
Procedure: as §1

A1 (h) = target: T5, A1 (h) (Homo sapiens, UniProt P30542); settings: antagonist radioligand
T5 construct: gene ADORA1
T5 sequence (P30542 whole entry): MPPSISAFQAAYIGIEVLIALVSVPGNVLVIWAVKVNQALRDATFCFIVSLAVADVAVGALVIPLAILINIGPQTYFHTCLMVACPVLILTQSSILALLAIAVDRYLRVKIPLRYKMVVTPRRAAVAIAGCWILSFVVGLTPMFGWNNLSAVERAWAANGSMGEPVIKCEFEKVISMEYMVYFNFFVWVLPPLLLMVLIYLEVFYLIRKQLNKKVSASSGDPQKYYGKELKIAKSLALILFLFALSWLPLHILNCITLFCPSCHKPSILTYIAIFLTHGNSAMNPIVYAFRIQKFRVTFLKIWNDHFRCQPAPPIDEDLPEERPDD
Procedure: as §1

A3 (h) = target: T6, A3 (h) (Homo sapiens, UniProt P0DMS8); settings: agonist radioligand
T6 construct: gene ADORA3
Procedure: as §1

AT1 (h) = target: T7, AT1 (h) (Homo sapiens, UniProt P30556); settings: antagonist radioligand
T7 construct: gene AGTR1
Procedure: as §1

CCK1 (CCKA) = target: T8, CCK1 (CCKA) (Homo sapiens, UniProt P32238); settings: agonist radioligand
T8 construct: gene CCKAR
Procedure: as §1

D1 = target: T9, D1 (Homo sapiens, UniProt P21728); settings: antagonist radioligand
T9 construct: gene DRD1
Procedure: as §1

GR = target: T10, GR (Homo sapiens, UniProt P04150); settings: agonist radioligand
T10 construct: gene NR3C1
T10 sequence (P04150 whole entry): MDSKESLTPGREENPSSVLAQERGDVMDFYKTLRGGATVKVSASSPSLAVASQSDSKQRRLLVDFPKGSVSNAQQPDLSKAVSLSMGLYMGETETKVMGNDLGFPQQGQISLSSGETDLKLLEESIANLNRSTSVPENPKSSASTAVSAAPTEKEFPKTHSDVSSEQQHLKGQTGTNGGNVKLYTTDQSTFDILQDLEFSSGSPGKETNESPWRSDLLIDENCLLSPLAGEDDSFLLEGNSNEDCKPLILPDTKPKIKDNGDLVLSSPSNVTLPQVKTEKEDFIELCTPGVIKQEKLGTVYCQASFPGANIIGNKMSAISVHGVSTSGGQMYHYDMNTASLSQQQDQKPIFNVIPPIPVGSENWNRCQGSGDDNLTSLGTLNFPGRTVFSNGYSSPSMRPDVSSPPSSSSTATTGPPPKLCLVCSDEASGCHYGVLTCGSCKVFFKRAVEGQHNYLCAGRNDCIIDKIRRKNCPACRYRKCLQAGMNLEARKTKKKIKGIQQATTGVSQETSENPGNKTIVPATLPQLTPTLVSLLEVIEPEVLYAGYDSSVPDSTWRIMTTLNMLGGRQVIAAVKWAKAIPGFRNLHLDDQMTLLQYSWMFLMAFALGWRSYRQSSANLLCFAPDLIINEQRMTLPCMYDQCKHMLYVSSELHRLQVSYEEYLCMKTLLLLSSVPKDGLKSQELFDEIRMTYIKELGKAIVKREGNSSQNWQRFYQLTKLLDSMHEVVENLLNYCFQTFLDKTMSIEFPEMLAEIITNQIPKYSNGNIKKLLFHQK
Procedure: as §1

H1 = target: T11, H1 (Homo sapiens, UniProt P35367); settings: antagonist radioligand
T11 construct: gene HRH1
T11 sequence (P35367 whole entry): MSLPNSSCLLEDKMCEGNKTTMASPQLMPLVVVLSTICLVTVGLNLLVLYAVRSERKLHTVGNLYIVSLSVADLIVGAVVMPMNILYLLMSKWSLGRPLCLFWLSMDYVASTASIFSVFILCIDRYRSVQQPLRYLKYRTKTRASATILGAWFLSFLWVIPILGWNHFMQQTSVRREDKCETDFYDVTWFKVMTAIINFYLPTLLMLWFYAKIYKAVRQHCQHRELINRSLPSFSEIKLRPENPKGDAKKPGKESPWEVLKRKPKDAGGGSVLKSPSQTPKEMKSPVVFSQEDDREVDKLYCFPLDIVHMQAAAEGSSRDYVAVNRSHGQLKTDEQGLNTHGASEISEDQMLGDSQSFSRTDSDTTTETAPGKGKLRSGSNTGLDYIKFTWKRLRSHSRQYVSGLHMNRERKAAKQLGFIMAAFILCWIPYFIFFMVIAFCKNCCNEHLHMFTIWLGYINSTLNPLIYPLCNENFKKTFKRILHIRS
Procedure: as §1

M5 = target: T12, M5 (Homo sapiens, UniProt P08912); settings: antagonist radioligand
T12 construct: gene CHRM5
T12 sequence (P08912 whole entry): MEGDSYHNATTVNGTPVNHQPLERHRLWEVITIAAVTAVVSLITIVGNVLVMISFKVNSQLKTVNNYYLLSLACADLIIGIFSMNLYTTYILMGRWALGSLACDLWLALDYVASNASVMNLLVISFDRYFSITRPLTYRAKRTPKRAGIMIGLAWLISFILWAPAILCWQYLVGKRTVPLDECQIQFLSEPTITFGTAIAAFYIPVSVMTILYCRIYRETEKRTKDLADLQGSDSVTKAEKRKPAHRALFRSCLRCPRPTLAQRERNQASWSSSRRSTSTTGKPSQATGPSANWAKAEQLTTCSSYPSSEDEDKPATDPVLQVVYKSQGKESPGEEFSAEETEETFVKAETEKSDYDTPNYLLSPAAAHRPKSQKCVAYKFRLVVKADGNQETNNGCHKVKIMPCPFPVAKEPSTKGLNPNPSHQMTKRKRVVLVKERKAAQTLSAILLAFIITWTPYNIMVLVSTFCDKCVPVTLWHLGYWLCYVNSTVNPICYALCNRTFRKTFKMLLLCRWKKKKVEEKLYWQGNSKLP
Procedure: as §1

Motilin = target: T13, Motilin (Homo sapiens, UniProt O43193); settings: agonist radioligand
T13 construct: gene MLNR
Procedure: as §1

[1] = target: T14, Norepinephrine transporter (Homo sapiens, UniProt P23975); settings: antagonist radioligand
T14 construct: gene SLC6A2
Procedure: as §1

UT = target: T15, UT (Homo sapiens, UniProt Q9UKP6); settings: agonist radioligand
T15 construct: gene UTS2R
T15 sequence (Q9UKP6 whole entry): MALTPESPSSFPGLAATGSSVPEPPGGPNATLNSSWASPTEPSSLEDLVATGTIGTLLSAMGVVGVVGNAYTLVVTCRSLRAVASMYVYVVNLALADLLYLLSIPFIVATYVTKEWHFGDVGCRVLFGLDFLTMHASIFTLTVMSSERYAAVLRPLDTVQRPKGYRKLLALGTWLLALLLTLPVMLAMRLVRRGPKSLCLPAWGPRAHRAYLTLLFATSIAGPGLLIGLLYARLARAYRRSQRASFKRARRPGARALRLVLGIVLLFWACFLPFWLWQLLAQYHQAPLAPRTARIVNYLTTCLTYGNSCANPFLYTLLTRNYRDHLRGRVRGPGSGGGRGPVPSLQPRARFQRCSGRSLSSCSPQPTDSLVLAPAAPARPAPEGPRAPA
Procedure: as §1

a1B (h) = target: T16, a1B (h) (Homo sapiens, UniProt P35368); settings: antagonist radioligand
T16 construct: gene ADRA1B
T16 sequence (P35368 whole entry): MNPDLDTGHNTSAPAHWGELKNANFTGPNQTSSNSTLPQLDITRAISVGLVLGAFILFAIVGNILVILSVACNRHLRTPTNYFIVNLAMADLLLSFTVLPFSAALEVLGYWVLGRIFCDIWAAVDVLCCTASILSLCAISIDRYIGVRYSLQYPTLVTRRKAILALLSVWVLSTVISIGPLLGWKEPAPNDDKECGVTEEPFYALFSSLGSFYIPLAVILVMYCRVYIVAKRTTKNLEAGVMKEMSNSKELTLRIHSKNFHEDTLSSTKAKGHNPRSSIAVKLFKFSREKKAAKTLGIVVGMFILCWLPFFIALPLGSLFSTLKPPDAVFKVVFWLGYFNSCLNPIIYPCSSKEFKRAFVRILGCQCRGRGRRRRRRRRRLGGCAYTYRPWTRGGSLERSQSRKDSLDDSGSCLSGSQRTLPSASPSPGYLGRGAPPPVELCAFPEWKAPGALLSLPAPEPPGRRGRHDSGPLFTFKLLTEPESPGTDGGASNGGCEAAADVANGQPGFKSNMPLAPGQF
Procedure: as §1

a2A (h) = target: T17, a2A (h) (Homo sapiens, UniProt P08913); settings: antagonist radioligand
T17 construct: gene ADRA2A
Procedure: as §1

b1 (h) = target: T18, b1 (h) (Homo sapiens, UniProt P08588); settings: agonist radioligand
T18 construct: gene ADRB1
T18 sequence (P08588 whole entry): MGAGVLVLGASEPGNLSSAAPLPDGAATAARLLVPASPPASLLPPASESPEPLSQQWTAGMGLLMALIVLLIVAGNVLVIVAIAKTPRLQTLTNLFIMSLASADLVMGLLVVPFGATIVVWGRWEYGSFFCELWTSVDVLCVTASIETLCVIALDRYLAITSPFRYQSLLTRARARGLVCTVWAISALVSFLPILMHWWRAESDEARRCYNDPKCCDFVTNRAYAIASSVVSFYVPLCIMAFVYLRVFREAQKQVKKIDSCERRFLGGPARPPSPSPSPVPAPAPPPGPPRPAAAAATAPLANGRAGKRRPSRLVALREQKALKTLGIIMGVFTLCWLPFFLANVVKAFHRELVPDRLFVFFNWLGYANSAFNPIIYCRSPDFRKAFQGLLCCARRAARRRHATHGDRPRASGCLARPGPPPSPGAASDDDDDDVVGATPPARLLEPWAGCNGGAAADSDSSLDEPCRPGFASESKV
Procedure: as §1

m (MOP) = target: T19, m (MOP) (Homo sapiens, UniProt P35372); settings: agonist radioligand
T19 construct: gene OPRM1; MOP
T19 sequence (P35372 whole entry): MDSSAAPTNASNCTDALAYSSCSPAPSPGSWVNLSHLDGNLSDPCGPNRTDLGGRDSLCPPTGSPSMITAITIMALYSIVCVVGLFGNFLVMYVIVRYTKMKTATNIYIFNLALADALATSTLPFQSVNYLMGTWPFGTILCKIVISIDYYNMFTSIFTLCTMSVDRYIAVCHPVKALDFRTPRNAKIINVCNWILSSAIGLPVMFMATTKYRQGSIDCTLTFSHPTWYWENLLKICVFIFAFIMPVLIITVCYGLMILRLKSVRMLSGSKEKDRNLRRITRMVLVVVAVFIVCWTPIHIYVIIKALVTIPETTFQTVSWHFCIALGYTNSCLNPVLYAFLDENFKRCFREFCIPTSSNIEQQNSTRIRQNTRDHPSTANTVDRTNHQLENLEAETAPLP
Procedure: as §1

Measured: AC50

CC(C)CCN[C@@H]1CCc2cc(O)c(N3CC(=O)NS3(=O)=O)c(F)c2C1 [AC484, ABBV-CLS-484]
> 0.01 mM: all assays above
